# Laboratory results as given in patent US8404683B2, “Inhibitors of the interaction between MDM2 and P53” (Janssen Pharmaceutical N.V., priority 2004, dated 2013).
# Structures can show the parent of a compound that is named as a salt.
# Tested on: U87MG cells
# Assay: Proliferation assay (MTT-based) on U87MG tumour cells
# Settings: Homo sapiens, U-87 MG, 96 h, 4 days of incubation, negative log value of the IC50-value, read-out: cell proliferation pIC50 (converted)
# Method: U87MG cells are human glioblastoma cells with wild type p53. In this cell line MDM2 tightly controls p53 expression.
# Cellular activity of the compounds of formula (I) was determined on U87MG tumour cells using a colorimetric assay for cell toxicity or survival (see example C.2).
# All compounds tested were dissolved in DMSO and further dilutions were made in culture medium. Final DMSO concentrations never exceeded 0.1% (v/v) in cell proliferation assays. Controls contained U87MG cells and DMSO without compound and blanks contained DMSO but no cells.
# U87MG cells were seeded in 96-well cell culture plates at 3000 cells/well/100 μl. 24 hours later, medium was changed and compound and/or solvent were added to a final volume of 200 μl. Following 4 days of incubation, medium was replaced by 200 μl fresh medium and cell growth was assessed using a MTT-based assay. Therefore, 25 μl of the MTT solution (0.5% MTT research grade from Serva in phosphate-buffered saline) was added to each well and the cells were further incubated for 2 hours at 37° C. The medium was then carefully aspirated and the blue MTT-formazan product was dissolved by adding to each well 25 μl 0.1 M glycin and 100 μl DMSO. The plates were shaken for another 10 min on a micro plate shaker before reading absorbance at 540 nm by a Biorad micro plate reader.
# Within an experiment, the results for each experimental condition are the mean of 3 replicate wells. For initial screening purposes, compounds were tested at a single fixed concentration of 10^−5 M. For active compounds, the experiments were repeated to establish full concentration-response curves. For each experiment, controls (containing no drug) and a blank incubation (containing no cells or drugs) were run in parallel. The blank value was subtracted from all control and sample values. For each sample, the mean value for cell growth (in absorbance units) was expressed as a percentage of the mean value for cell growth of the control. When appropriate, IC50-values (concentration of the drug, needed to reduce cell growth to 50% of the control) were computed using probit analysis for graded data (Finney, D. J., Probit Analyses, 2nd Ed. Chapter 10, Graded Responses, Cambridge University Press, Cambridge 1962). Herein the effects of test compounds are expressed as pIC50 (the negative log value of the IC50-value) (see table F-2).
row,SMILES,IC50 [nM]
1,O=C(C(Cc1c[nH]c2ccccc12)Nc1ccc(Nc2ccncc2)cc1)N1CCCC1CO (stereo not shown) [Compound 208],> 10000
2,c1cc(NCCCc2c[nH]c3ccccc23)cc(Nc2ccncc2)c1 [Compound 84],1580
3,O=C(NCCO)c1cc(Nc2ccc(NCCc3c[nH]c4ccccc34)cc2)ccn1 [Compound 52],501
4,CCN(CCCCO)C(=O)C(Cc1c[nH]c2ccccc12)Nc1ccc(Nc2ccncc2)cc1 (stereo not shown) [Compound 212],1580
5,CCOc1cc(Nc2ccnc(CO)c2)ccc1NCCc1c[nH]c2cc(OC)ccc12 [Compound 69],100
6,Cn1cc(CCN(c2ccncc2)c2ccc(Nc3ccncc3)cc2)c2ccccc21 [Compound 10],1260
7,O=C(OCc1ccccc1)N1CCN(Cc2cc(Nc3ccc(NCCc4c[nH]c5ccccc45)cc3)ccn2)CC1 [Compound 90],2510
8,COC(=O)CCNC(C)c1cc(Nc2ccc(NCCc3c[nH]c4ccccc34)cc2)ccn1 (stereo not shown) [Compound 146],7940
9,c1cnc2[nH]cc(CCNc3ccc(Nc4ccncc4)cc3)c2c1 [Compound 190],3980
10,Cc1ccc2[nH]cc(CCNc3ccc(Nc4ccnc(CO)c4)cc3)c2c1 [Compound 189],3160
11,c1ccc2c(CCNc3ccc(N(c4ccncc4)c4ccncc4)cc3)c[nH]c2c1 [Compound 228],7940
12,Cc1cc(Nc2ccncc2)ccc1NCCc1c[nH]c2ccccc12 [Compound 47],158
13,CC(CO)(CO)C1CCN(C(=O)C(Cc2c[nH]c3ccccc23)Nc2ccc(Nc3ccncc3)cc2)CC1 (stereo not shown) [Compound 221],3980
14,c1ccc2c(CCNc3ccc(Nc4ccnc(CN5CCCC5)c4)cc3)c[nH]c2c1 [Compound 53],631
15,COCCN(C)C(=O)C(Cc1c[nH]c2ccccc12)Nc1ccc(Nc2ccncc2)cc1 (stereo not shown) [Compound 215],3160
16,O=C(C(Cc1c[nH]c2ccccc12)Nc1ccc(Nc2ccncc2)cc1)N1CCC(CO)C1 (stereo not shown) [Compound 209],> 10000
17,Clc1cc(Nc2ccncc2)ccc1NCCc1c[nH]c2ccccc12 [Compound 45],1000

row,SMILES,IC50 [nM]
1,c1ccc(CC(CNc2ccc(Nc3ccncc3)cc2)c2c[nH]c3ccccc23)cc1 (stereo not shown) [Compound 101],2510
2,CC(C)(CO)C1CCN(C(=O)C(Cc2c[nH]c3ccccc23)Nc2ccc(Nc3ccncc3)cc2)CC1 (stereo not shown) [Compound 220],6310
3,CC(NCCN1CCOCC1)c1cc(Nc2ccc(NCCc3c[nH]c4ccccc34)cc2)ccn1 (stereo not shown) [Compound 144],3160
4,CCOc1cc(Nc2ccnc(C(C)O)c2)ccc1NCCc1c[nH]c2cc(OC)ccc12 (stereo not shown) [Compound 205],794
5,O=C(c1cc(Nc2ccc(NCCc3c[nH]c4ccccc34)cc2)ccn1)N1CCCC1 [Compound 49],> 10000
6,OCCCCNCc1cc(Nc2ccc(NCCc3c[nH]c4ccccc34)cc2)ccn1 [Compound 165],5010
7,O=C(C(Cc1c[nH]c2ccccc12)Nc1ccc(Nc2ccncc2)cc1)N1CCCC(CO)C1 (stereo not shown) [Compound 218],> 10000
8,O=C(C(Cc1c[nH]c2ccccc12)Nc1ccc(Nc2ccncc2)cc1)N(CCO)Cc1ccccc1 (stereo not shown) [Compound 214],> 10000
9,CC1(CO)CCCN(C(=O)C(Cc2c[nH]c3ccccc23)Nc2ccc(Nc3ccncc3)cc2)C1 (stereo not shown) [Compound 219],3980
10,CC(C)(C)OC(=O)N(CCc1cn(C(=O)OC(C)(C)C)c2ccccc12)c1ccc(N(c2ccncc2)c2ccncc2)cc1 [Compound 227],7940
11,CN1CCN(Cc2cc(Nc3ccc(NCCc4c[nH]c5ccccc45)cc3)ccn2)CC1 [Compound 160],398
12,c1ccc2c(CCNc3ccc(Nc4ccnc(CN5CCNCC5)c4)cc3)c[nH]c2c1 [Compound 91],2510
13,Cc1[nH]c2ccccc2c1CCNc1ccc(Nc2ccncc2)cc1 [Compound 77],3160
14,O=C(OCc1ccccc1)C(Cc1c[nH]c2ccccc12)Nc1ccc(Nc2ccncc2)cc1 (stereo not shown) [Compound 67],1260
15,c1ccc2c(CCNCCc3ccc(Nc4ccncc4)cc3)c[nH]c2c1 [Compound 75],3160
16,CCOc1cc(Nc2ccncc2)ccc1NCCc1c[nH]c2ccccc12 [Compound 2],63.1
17,O=C(C(Cc1c[nH]c2ccccc12)Nc1ccc(Nc2ccncc2)cc1)N1CCN(CCO)CC1 (stereo not shown) [Compound 114],> 10000

# Next, values leading:
row,IC50 [nM],SMILES
1,200,c1ccc2c(CCNc3ccc(Nc4ccncc4)cc3)c[nH]c2c1 [Compound 36]
2,79.4,O[C@@H]1CCc2c(Nc3ccc(NCCc4c[nH]c5ccccc45)cc3)ccnc21 [Compound 195]
3,794,c1ccc2c(CCCNc3ccc(Nc4ccncc4)cc3)c[nH]c2c1 [Compound 71]
4,10,c1ccc2c(CCNc3ccc(Nc4ccnc5c4CCC5)cc3)c[nH]c2c1 [Compound 4]
5,3160,CC(C)(O)c1cc(Nc2ccc(NCCc3c[nH]c4ccccc34)cc2)ccn1 [Compound 201]
6,1580,c1ccc2c(CCCCNc3ccc(Nc4ccncc4)cc3)c[nH]c2c1 [Compound 74]
7,> 10000,c1cncc(CNc2ccc(NCCc3c[nH]c4ccccc34)cc2)c1 [Compound 121]
8,3980,COC(=O)COCc1cc(Nc2ccc(NCCc3c[nH]c4ccccc34)cc2)ccn1 [Compound 98]
9,2510,CC(NCc1ccccc1)c1cc(Nc2ccc(NCCc3c[nH]c4ccccc34)cc2)ccn1 (stereo not shown) [Compound 140]
10,3980,Clc1cc(Nc2ccc(NCCc3c[nH]c4ccccc34)cc2)ccn1 [Compound 103]
11,3160,c1ccc(CCNCc2cc(Nc3ccc(NCCc4c[nH]c5ccccc45)cc3)ccn2)cc1 [Compound 163]
12,631,c1ccc(COc2cc(Nc3ccnc4ccccc34)ccc2NCCc2c[nH]c3ccccc23)cc1 [Compound 17]
13,63.1,CCc1cc(Nc2ccc(NCCc3c[nH]c4ccccc34)cc2)c2ccccc2n1 [Compound 33]
14,> 10000,CCC(=O)NCc1cc(Nc2ccc(NCCc3c[nH]c4ccccc34)cc2)ccn1 [Compound 132]
15,316,c1ccc(COc2cc(Nc3ccncc3)ccc2NCCc2c[nH]c3ccccc23)cc1 [Compound 61]
16,2000,CS(=O)(=O)NCc1cc(Nc2ccc(NCCc3c[nH]c4ccccc34)cc2)ccn1 [Compound 129]
17,2510,CC(NCCc1ccccc1)c1cc(Nc2ccc(NCCc3c[nH]c4ccccc34)cc2)ccn1 (stereo not shown) [Compound 145]
18,3160,c1ccc(CCCCNCc2cc(Nc3ccc(NCCc4c[nH]c5ccccc45)cc3)ccn2)cc1 [Compound 170]
19,< 10,COc1ccc2nccc(Nc3ccc(NCCc4c[nH]c5ccccc45)cc3)c2c1 [Compound 24]
20,3160,CCNC(C)c1cc(Nc2ccc(NCCc3c[nH]c4ccccc34)cc2)ccn1 (stereo not shown) [Compound 143]
21,3160,CNC(C)c1cc(Nc2ccc(NCCc3c[nH]c4ccccc34)cc2)ccn1 (stereo not shown) [Compound 142]
22,20,Cc1cccc2c(Nc3ccc(NCCc4c[nH]c5ccccc45)cc3)ccnc12 [Compound 22]
23,3160,c1cncc(Nc2ccc(NCCc3c[nH]c4ccccc34)cc2)c1 [Compound 6]
24,3160,N#CCCNCc1cc(Nc2ccc(NCCc3c[nH]c4ccccc34)cc2)ccn1 [Compound 162]
25,1580,CC(C)(C)C(O)c1cc(Nc2ccc(NCCc3c[nH]c4ccccc34)cc2)ccn1 (stereo not shown) [Compound 138]
26,3980,c1ccc(COCc2cc(Nc3ccc(NCCc4c[nH]c5ccccc45)cc3)ccn2)cc1 [Compound 167]
27,25.1,COc1ccc2c(CCNc3ccc(Nc4ccnc5ccccc45)cc3)c[nH]c2c1 [Compound 13]
28,3160,CNCc1cc(Nc2ccc(NCCc3c[nH]c4ccccc34)cc2)ccn1 [Compound 154]
29,316,CCCc1cc(Nc2ccc(NCCc3c[nH]c4ccccc34)cc2)c2ccccc2n1 [Compound 30]
30,1580,N#CCNCc1cc(Nc2ccc(NCCc3c[nH]c4ccccc34)cc2)ccn1 [Compound 157]

# Tested on: not given
# Assay: not given
# Settings: not given
row,SMILES,melting point [°C]
1,Cn1cc(CCN(c2ccncc2)c2ccc(Nc3ccncc3)cc2)c2ccccc21 (as salt: hydrochloric acid salt) [Compound 10],> 250
2,CCOc1cc(Nc2ccncc2)ccc1NCCc1c[nH]c2ccccc12 (as salt: hydrochloric acid salt) [Compound 2],150

# The remaining lines, values ahead:
row,melting point [°C],SMILES
1,160,c1cncc(Nc2ccc(NCCc3c[nH]c4ccccc34)cc2)c1 (as salt: HCl) [Compound 6]
2,132,c1ccc2c(CCNc3ccc(NCc4ccncc4)cc3)c[nH]c2c1 (as salt: salt) [Compound 9]
3,170 to 174,c1ccc(-c2noc(-c3cc(Nc4ccc(NCCc5c[nH]c6ccccc56)cc4)ccn3)n2)cc1 [Compound 107]
4,130,c1cncc(CNc2ccc(NCCc3c[nH]c4ccccc34)cc2)c1 (as salt: hydrochloric acid salt) [Compound 121]
